# Laboratory results taken from patent US20100035755A1, “METHOD OF CONTROLLING WEEDS IN A TURF GRASS BY USING SULFONYLUREA COMPOUNDS” (Moghu Research Center Ltd., priority 2008, published 2010).
# Columns and labels:
# Dandelion = test: Weed spectrum, greenhouse pot test; type: in vivo; settings: two weeks after application
# Bentgrass = test: Turf grass selectivity, greenhouse pot test; type: in vivo, Agrostris palustris
# Text: Turf mats of Zoysia grass, bentgrass, Kentucky bluegrass, or perennial rye grass known as cool season turfgrass or western grass were purchased and cut into a piece having 10 cm×20 cm size. Then, each piece was transplanted in a rectangular plastic pot (surface area of 300 cm^2) in which sandy loam and mixed top soil (Boo-Nong Top Soil No. 3, for horticultural use) are filled in 1:1 ratio. After the transplantation, the grasses were cut once a week to maintain the blade height at 0.5-1.0 cm and cultivated for one month in a green house of which temperature was kept at 25˜30° C. for daytime and 15˜25° C. for nighttime, respectively. Then, the ‘test chemical’ of the above Examples 1 and 2 or ‘control chemical’ was applied thereto in an amount of 400, 200, 100, 50, 25, 12, 6, 3 g ai/ha. As a “control chemical”, pyrazolsulfuron ethyl wettable agent (manufactured by Dongbu Fine Chemicals; herein after, referred to as ‘control chemical No. 1’) and flazasulfuron (manufactured by Dongbu HiTek; herein after, referred to as ‘control chemical No. 2’), both sulfonylurea herbicides for a turf grass, were used. Application was carried out by using a track sprayer (R&D Sprayer, USA) equipped with Teejet 8002 nozzle (Spraying Systems Co., USA), and the application amount was adjusted to 2,000 L/ha, which is a typical application amount for a golf course in Korea. Application solution was prepared by diluting the “test chemical” or the “control chemical” with tap water. […] The test was repeated three times in a random arrangement and the results are given in average value of each test (see Table 2 below).
# Cyperus amuricus = test: Weed spectrum, greenhouse pot test; type: in vivo; settings: two weeks after application
# Text: (§1) To a rectangular plastic pot (surface area of 300 cm^2) in which sandy loam and mixed top soil (Boo-Nong Top Soil No. 3, for horticultural use) are filled in 1:1 ratio, eight different kinds of weed seeds including Poa annua and Digitaria sanguinalis as poaceae weed, Cyperus amuricus as cyperaceae weeds and Trifolium repens, Kummerowia striata, fleabane, Veronica officinalis and Portulaca oleracea as broadleaf weeds were sewn (50 to 100 seeds per each weed). These weeds are representative examples of the weeds which typically thrive in a turf grass field.
# (§2) The pot was kept in a greenhouse which was maintained at 25˜30° C. for daytime and 15˜25° C. for nighttime, respectively, and irrigation was carried out regularly. Fourteen days after seeding, when the turf grass and the weeds reached approximately at three-leaf stage, the weed seeds were again sewn in separate two pots or “Test chemical” and “Control chemical” were applied in the same manner as the method described above. In this regard, when plants were cultivated for two weeks and then the chemical application was carried out, it is designated as “post-emergence” treatment. On the other than, when the seeding was carried right before the chemical application, it is designated as “pre-emergence” treatment. Preparation of a chemical solution, application method, etc. are the same as above described for evaluation of turf grass selectivity. Two weeks after the chemical application, efficacy of the chemicals for each type of the weeds was evaluated (visual evaluation) based on 0 to 100 scale (i.e., 0 indicates no efficacy and 100 indicates complete weed control).
# Trifolium repens = test: Weed spectrum, greenhouse pot test; type: in vivo; settings: two weeks after application
# Text: as §1, §2
# Kummerowia striata = test: Weed spectrum, greenhouse pot test; type: in vivo; settings: two weeks after application
# Text: as §1, §2
# Poa annua = test: Weed spectrum, greenhouse pot test; type: in vivo; settings: two weeks after application
# Text: as §1, §2
# Portulaca oleracea = test: Weed spectrum, greenhouse pot test; type: in vivo; settings: two weeks after application
# Text: as §1, §2
# Veronica officinalis = test: Weed spectrum, greenhouse pot test; type: in vivo; settings: two weeks after application
# Text: as §1, §2
# Digitaria sanguinalis = test: Weed spectrum, greenhouse pot test; type: in vivo; settings: two weeks after application
# Text: as §1, §2
structure (smiles),measurement,setting,value
"CCOC(=O)c1cnn(C)c1S(=O)(=O)NC(=O)Nc1nc(OC)cc(OC)n1 [Control chemical No. 1, Pyrazosulfuron ethyl, reference compound]",efficacy (0-100 scale),"Dandelion; Post-emergence, 12 g ai/ha",80
same,efficacy (0-100 scale),"Dandelion; Post-emergence, 25 g ai/ha",90
same,efficacy (0-100 scale),"Dandelion; Post-emergence, 50 g ai/ha",100
same,efficacy (0-100 scale),"Dandelion; Post-emergence, 100 g ai/ha",100
same,efficacy (0-100 scale),"Dandelion; Pre-emergence, 12 g ai/ha",70
same,efficacy (0-100 scale),"Dandelion; Pre-emergence, 25 g ai/ha",80
same,efficacy (0-100 scale),"Dandelion; Pre-emergence, 50 g ai/ha",90
same,efficacy (0-100 scale),"Dandelion; Pre-emergence, 100 g ai/ha",100
same,phytotoxicity (visual assessment 0-10),"Bentgrass; 3 g ai/ha, 2 weeks",0
same,phytotoxicity (visual assessment 0-10),"Bentgrass; 3 g ai/ha, 4 weeks",0
same,phytotoxicity (visual assessment 0-10),"Bentgrass; 6 g ai/ha, 2 weeks",0
same,phytotoxicity (visual assessment 0-10),"Bentgrass; 6 g ai/ha, 4 weeks",0
same,phytotoxicity (visual assessment 0-10),"Bentgrass; 12 g ai/ha, 2 weeks",0
same,phytotoxicity (visual assessment 0-10),"Bentgrass; 12 g ai/ha, 4 weeks",0
same,phytotoxicity (visual assessment 0-10),"Bentgrass; 25 g ai/ha, 2 weeks",0
same,phytotoxicity (visual assessment 0-10),"Bentgrass; 25 g ai/ha, 4 weeks",0
same,phytotoxicity (visual assessment 0-10),"Bentgrass; 50 g ai/ha, 2 weeks",0
same,phytotoxicity (visual assessment 0-10),"Bentgrass; 50 g ai/ha, 4 weeks",0
same,phytotoxicity (visual assessment 0-10),"Bentgrass; 100 g ai/ha, 2 weeks",1
same,phytotoxicity (visual assessment 0-10),"Bentgrass; 100 g ai/ha, 4 weeks",0
same,phytotoxicity (visual assessment 0-10),"Bentgrass; 200 g ai/ha, 2 weeks",2
same,phytotoxicity (visual assessment 0-10),"Bentgrass; 200 g ai/ha, 4 weeks",0
same,phytotoxicity (visual assessment 0-10),"Bentgrass; 400 g ai/ha, 2 weeks",3
same,phytotoxicity (visual assessment 0-10),"Bentgrass; 400 g ai/ha, 4 weeks",1
same,efficacy (0-100 scale),"Cyperus amuricus; Post-emergence, 12 g ai/ha",50
same,efficacy (0-100 scale),"Cyperus amuricus; Post-emergence, 25 g ai/ha",70
same,efficacy (0-100 scale),"Cyperus amuricus; Post-emergence, 50 g ai/ha",80
same,efficacy (0-100 scale),"Cyperus amuricus; Post-emergence, 100 g ai/ha",100
same,efficacy (0-100 scale),"Cyperus amuricus; Pre-emergence, 12 g ai/ha",70
same,efficacy (0-100 scale),"Cyperus amuricus; Pre-emergence, 25 g ai/ha",80
same,efficacy (0-100 scale),"Cyperus amuricus; Pre-emergence, 50 g ai/ha",100
same,efficacy (0-100 scale),"Cyperus amuricus; Pre-emergence, 100 g ai/ha",100
same,efficacy (0-100 scale),"Trifolium repens; Post-emergence, 12 g ai/ha",20
same,efficacy (0-100 scale),"Trifolium repens; Post-emergence, 25 g ai/ha",60
same,efficacy (0-100 scale),"Trifolium repens; Post-emergence, 50 g ai/ha",70
same,efficacy (0-100 scale),"Trifolium repens; Post-emergence, 100 g ai/ha",80
same,efficacy (0-100 scale),"Trifolium repens; Pre-emergence, 12 g ai/ha",40
same,efficacy (0-100 scale),"Trifolium repens; Pre-emergence, 25 g ai/ha",60
same,efficacy (0-100 scale),"Trifolium repens; Pre-emergence, 50 g ai/ha",70
same,efficacy (0-100 scale),"Trifolium repens; Pre-emergence, 100 g ai/ha",70
same,efficacy (0-100 scale),"Kummerowia striata; Post-emergence, 12 g ai/ha",0
same,efficacy (0-100 scale),"Kummerowia striata; Post-emergence, 25 g ai/ha",30
same,efficacy (0-100 scale),"Kummerowia striata; Post-emergence, 50 g ai/ha",40
same,efficacy (0-100 scale),"Kummerowia striata; Post-emergence, 100 g ai/ha",50
same,efficacy (0-100 scale),"Kummerowia striata; Pre-emergence, 12 g ai/ha",30
same,efficacy (0-100 scale),"Kummerowia striata; Pre-emergence, 25 g ai/ha",50
same,efficacy (0-100 scale),"Kummerowia striata; Pre-emergence, 50 g ai/ha",50
same,efficacy (0-100 scale),"Kummerowia striata; Pre-emergence, 100 g ai/ha",70
same,efficacy (0-100 scale),"Poa annua; Post-emergence, 12 g ai/ha",0
same,efficacy (0-100 scale),"Poa annua; Post-emergence, 25 g ai/ha",0
same,efficacy (0-100 scale),"Poa annua; Post-emergence, 50 g ai/ha",0
same,efficacy (0-100 scale),"Poa annua; Post-emergence, 100 g ai/ha",10
same,efficacy (0-100 scale),"Poa annua; Pre-emergence, 12 g ai/ha",0
same,efficacy (0-100 scale),"Poa annua; Pre-emergence, 25 g ai/ha",10
same,efficacy (0-100 scale),"Poa annua; Pre-emergence, 50 g ai/ha",20
same,efficacy (0-100 scale),"Poa annua; Pre-emergence, 100 g ai/ha",20
same,efficacy (0-100 scale),"Portulaca oleracea; Post-emergence, 12 g ai/ha",20
same,efficacy (0-100 scale),"Portulaca oleracea; Post-emergence, 25 g ai/ha",40
same,efficacy (0-100 scale),"Portulaca oleracea; Post-emergence, 50 g ai/ha",60
same,efficacy (0-100 scale),"Portulaca oleracea; Post-emergence, 100 g ai/ha",80
same,efficacy (0-100 scale),"Portulaca oleracea; Pre-emergence, 12 g ai/ha",20
same,efficacy (0-100 scale),"Portulaca oleracea; Pre-emergence, 25 g ai/ha",30
same,efficacy (0-100 scale),"Portulaca oleracea; Pre-emergence, 50 g ai/ha",70
same,efficacy (0-100 scale),"Portulaca oleracea; Pre-emergence, 100 g ai/ha",100
same,efficacy (0-100 scale),"Veronica officinalis; Post-emergence, 12 g ai/ha",10
same,efficacy (0-100 scale),"Veronica officinalis; Post-emergence, 25 g ai/ha",20
same,efficacy (0-100 scale),"Veronica officinalis; Post-emergence, 50 g ai/ha",30
same,efficacy (0-100 scale),"Veronica officinalis; Post-emergence, 100 g ai/ha",30
same,efficacy (0-100 scale),"Veronica officinalis; Pre-emergence, 12 g ai/ha",0
same,efficacy (0-100 scale),"Veronica officinalis; Pre-emergence, 25 g ai/ha",20
same,efficacy (0-100 scale),"Veronica officinalis; Pre-emergence, 50 g ai/ha",30
same,efficacy (0-100 scale),"Veronica officinalis; Pre-emergence, 100 g ai/ha",40
same,efficacy (0-100 scale),"Digitaria sanguinalis; Post-emergence, 12 g ai/ha",0
same,efficacy (0-100 scale),"Digitaria sanguinalis; Post-emergence, 25 g ai/ha",0
same,efficacy (0-100 scale),"Digitaria sanguinalis; Post-emergence, 50 g ai/ha",0
same,efficacy (0-100 scale),"Digitaria sanguinalis; Post-emergence, 100 g ai/ha",10
same,efficacy (0-100 scale),"Digitaria sanguinalis; Pre-emergence, 12 g ai/ha",0
same,efficacy (0-100 scale),"Digitaria sanguinalis; Pre-emergence, 25 g ai/ha",10
same,efficacy (0-100 scale),"Digitaria sanguinalis; Pre-emergence, 50 g ai/ha",30
same,efficacy (0-100 scale),"Digitaria sanguinalis; Pre-emergence, 100 g ai/ha",50
